Here are results for 13 compounds from ChEMBL document CHEMBL1140656, “Design, synthesis, and evaluation of 3,4-disubstituted pyrazole analogues as anti-tumor CDK inhibitors” (Bioorg Med Chem Lett, 2007).

Test [1] deals with Receptor tyrosine-protein kinase erbB-2 (Homo sapiens, UniProt P04626). Kind of test: Inhibition of HER2.
Test [2] in a line: Inhibition of CDK1/cyclin B. On the set-up: species or system Homo sapiens.
The test system of a further test is A-375. Kind of test: Antiproliferative activity against human A375 cells. In kind it is functional, cell-based.
The subject of a further test is HCT-116. In words: Antiproliferative activity against human HCT116 cells. It counts as functional, cell-based.
The next test deals with T1, Aurora kinase A (Homo sapiens, UniProt O14965).
T1 sequence (O14965 whole entry): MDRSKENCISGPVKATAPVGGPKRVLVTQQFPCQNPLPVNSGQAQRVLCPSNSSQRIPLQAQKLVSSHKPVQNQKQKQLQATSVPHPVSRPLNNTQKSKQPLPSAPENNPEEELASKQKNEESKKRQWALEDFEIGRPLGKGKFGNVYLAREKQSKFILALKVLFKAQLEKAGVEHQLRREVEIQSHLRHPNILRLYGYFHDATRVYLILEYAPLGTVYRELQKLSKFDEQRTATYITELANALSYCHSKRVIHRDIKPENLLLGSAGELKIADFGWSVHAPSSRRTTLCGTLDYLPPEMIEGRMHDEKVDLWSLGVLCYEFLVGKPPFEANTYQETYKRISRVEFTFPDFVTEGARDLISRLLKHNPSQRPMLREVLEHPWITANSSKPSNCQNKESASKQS
Kind of test: Inhibition of aurora-A.

Test [3] concerns the target Vascular endothelial growth factor receptor 2 (Homo sapiens, UniProt P35968). In words: Inhibition of VEGFR2.
A further test has as its system HeLa. Kind of test: Antiproliferative activity against human HeLa cells. In kind it is functional, cell-based.

Sequence of Receptor tyrosine-protein kinase erbB-2 (P04626 whole entry): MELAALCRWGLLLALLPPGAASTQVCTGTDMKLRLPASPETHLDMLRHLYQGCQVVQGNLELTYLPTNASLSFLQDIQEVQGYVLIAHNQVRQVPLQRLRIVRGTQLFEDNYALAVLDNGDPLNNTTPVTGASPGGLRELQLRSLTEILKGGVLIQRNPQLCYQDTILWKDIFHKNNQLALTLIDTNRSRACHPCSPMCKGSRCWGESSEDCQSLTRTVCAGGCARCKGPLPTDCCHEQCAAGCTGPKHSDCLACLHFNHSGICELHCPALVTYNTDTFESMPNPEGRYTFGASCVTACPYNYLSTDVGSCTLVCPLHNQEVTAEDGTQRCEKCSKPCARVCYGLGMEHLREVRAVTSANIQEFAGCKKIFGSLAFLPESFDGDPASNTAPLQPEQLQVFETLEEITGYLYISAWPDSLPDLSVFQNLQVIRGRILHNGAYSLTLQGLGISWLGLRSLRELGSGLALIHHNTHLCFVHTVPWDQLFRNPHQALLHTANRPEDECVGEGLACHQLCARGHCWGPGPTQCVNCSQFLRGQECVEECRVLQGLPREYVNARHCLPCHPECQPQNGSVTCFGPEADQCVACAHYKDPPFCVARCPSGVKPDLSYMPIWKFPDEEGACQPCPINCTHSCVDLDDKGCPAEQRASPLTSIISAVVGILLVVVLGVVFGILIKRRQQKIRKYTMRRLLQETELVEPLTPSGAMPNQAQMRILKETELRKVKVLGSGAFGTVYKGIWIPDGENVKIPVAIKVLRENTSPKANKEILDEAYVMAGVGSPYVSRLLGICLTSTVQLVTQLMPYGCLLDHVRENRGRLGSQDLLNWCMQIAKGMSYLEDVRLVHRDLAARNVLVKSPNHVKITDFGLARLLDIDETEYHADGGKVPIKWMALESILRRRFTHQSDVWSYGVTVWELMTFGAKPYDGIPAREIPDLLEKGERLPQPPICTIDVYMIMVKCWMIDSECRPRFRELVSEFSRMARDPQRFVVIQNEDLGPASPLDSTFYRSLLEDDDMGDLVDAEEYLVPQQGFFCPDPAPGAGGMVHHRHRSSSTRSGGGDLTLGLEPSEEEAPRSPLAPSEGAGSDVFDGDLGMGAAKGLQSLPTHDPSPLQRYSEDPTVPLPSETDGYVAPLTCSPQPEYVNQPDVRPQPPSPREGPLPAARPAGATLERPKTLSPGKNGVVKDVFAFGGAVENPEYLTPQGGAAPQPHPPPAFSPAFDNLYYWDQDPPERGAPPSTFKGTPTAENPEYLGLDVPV
Sequence of Vascular endothelial growth factor receptor 2 (P35968 whole entry): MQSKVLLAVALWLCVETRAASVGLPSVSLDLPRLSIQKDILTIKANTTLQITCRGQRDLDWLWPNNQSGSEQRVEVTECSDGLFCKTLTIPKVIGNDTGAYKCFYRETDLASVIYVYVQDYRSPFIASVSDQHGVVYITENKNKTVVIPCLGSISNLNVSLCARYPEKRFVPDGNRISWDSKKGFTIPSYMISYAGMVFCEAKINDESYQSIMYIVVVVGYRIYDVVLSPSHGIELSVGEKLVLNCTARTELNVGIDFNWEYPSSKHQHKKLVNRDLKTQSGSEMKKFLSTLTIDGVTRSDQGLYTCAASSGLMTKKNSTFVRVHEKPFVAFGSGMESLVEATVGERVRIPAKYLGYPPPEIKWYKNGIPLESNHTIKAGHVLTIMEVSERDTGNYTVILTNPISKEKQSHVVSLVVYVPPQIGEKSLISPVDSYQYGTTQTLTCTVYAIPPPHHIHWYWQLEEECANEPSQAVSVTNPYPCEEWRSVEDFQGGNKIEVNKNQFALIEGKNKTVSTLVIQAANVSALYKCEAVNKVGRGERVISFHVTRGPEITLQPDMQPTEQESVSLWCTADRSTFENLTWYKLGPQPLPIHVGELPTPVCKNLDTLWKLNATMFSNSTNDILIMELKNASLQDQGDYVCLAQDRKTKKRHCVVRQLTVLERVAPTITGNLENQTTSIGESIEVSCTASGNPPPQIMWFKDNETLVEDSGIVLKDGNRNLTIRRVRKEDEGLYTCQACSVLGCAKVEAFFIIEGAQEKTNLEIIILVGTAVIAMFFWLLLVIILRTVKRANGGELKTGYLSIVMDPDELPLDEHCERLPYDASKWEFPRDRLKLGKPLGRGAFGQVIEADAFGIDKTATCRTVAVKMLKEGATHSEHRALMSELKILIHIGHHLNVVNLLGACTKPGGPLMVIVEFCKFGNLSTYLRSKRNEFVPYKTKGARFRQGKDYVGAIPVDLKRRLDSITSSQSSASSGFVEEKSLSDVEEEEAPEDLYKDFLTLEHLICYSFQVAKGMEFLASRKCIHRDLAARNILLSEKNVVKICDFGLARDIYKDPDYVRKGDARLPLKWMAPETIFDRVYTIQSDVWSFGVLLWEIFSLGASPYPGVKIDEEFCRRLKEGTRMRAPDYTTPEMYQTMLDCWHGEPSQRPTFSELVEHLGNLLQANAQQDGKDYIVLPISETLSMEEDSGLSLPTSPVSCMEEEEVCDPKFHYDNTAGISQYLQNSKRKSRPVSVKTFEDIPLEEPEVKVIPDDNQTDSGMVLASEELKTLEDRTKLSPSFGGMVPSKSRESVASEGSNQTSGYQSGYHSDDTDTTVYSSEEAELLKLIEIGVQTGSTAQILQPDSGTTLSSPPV

Consider `CCNCc1cncc(/C=C/c2c[nH]nc2-c2nc(C(F)(F)F)c[nH]2)c1`, for which the IC50 in test [1] is over 100000 nM; in test [2] it was 18 nM; in the test on A-375, 7400 nM; in the test on HCT-116, 1700 nM; on Aurora kinase A, over 10000 nM; in test [3], 10000 nM. For the same compound, the IC50 in the test on HeLa came to 3200 nM.

As to `COc1ccc2nc(-c3n[nH]cc3/C=C/c3cnccc3C)[nH]c2c1`, the IC50 is over 10000 nM in test [1]; 160 nM in test [2]; 4300 nM in the test on A-375; 3200 nM with HCT-116; 550 nM against Aurora kinase A; 760 nM in test [3]. The IC50 in the test on HeLa came out at 2800 nM.

With `COc1cncc(/C=C/c2c[nH]nc2-c2nc3ccc(OC)cc3[nH]2)c1`, the IC50 in test [2] was found to be 47 nM; with A-375 it was 910 nM; in the test on HCT-116, 750 nM; against Aurora kinase A, 400 nM; in test [3], 650 nM; in the test with HeLa, 890 nM.

Take `CCNC(=O)c1cncc(/C=C/c2c[nH]nc2-c2nc3ccc(OC)cc3[nH]2)c1`: the IC50 was 110 nM in test [2]; 3600 nM in the test with A-375; 2500 nM in the test with HCT-116; over 100000 nM at Aurora kinase A; 1350 nM in test [3]; 3700 nM with HeLa.

For `CCNCc1cncc(/C=C/c2c[nH]nc2-c2nc3ccc(OC)cc3[nH]2)c1`, the IC50 in test [2] came out at 4.6 nM; in the test with A-375, 550 nM; with HCT-116, 190 nM; against Aurora kinase A it was 590 nM; in test [3] it was 820 nM; with HeLa, 620 nM.

For `FC(F)(F)c1c[nH]c(-c2n[nH]cc2/C=C/c2cccnc2)n1`, the half-maximal inhibitory concentration (IC50) in test [1] is over 100000 nM; in test [2], 480 nM; with A-375 it was 47000 nM; with HCT-116, 24000 nM; against Aurora kinase A, 120 nM; in test [3], 29000 nM. The IC50 in the test on HeLa is over 10000 nM.

On to `FC(F)(F)c1c[nH]c(-c2n[nH]cc2/C=C/c2cncc3ccccc23)n1`, for which the IC50 in test [2] was 110 nM; in the test on A-375, 5600 nM; with HCT-116, 2900 nM; at Aurora kinase A, 300 nM; in test [3], 3060 nM; in the test with HeLa, 3600 nM.

`CN1CCN(c2ccc3nc(-c4n[nH]cc4/C=C/c4cccnc4)[nH]c3c2)CC1`: the half-inhibitory concentration (IC50) in test [2] was 29 nM; in the test on A-375, 860 nM; in the test with HCT-116, 190 nM; at Aurora kinase A it was over 10000 nM; in test [3], 290 nM; in the test with HeLa, 460 nM.

On to `N#Cc1c[nH]c(-c2n[nH]cc2/C=C/c2cccnc2)n1`, for which the IC50 in test [1] is over 100000 nM; in test [2] it was 700 nM; in the test with A-375, over 10000 nM; in the test with HCT-116 it was 70700 nM; against Aurora kinase A, over 10000 nM; in test [3] it was over 10000 nM. The IC50 in the test with HeLa is over 10000 nM.

Turning to `COc1ccc2nc(-c3n[nH]cc3/C=C/c3cncc4ccccc34)[nH]c2c1`, the IC50 is over 100000 nM in test [1]; 150 nM in test [2]; 3000 nM in the test on A-375; 2700 nM in the test with HCT-116; 530 nM on Aurora kinase A; 610 nM in test [3]. Besides, in the test on HeLa, it took 2800 nM to reach half-maximal inhibition (IC50).

For the compound `COc1ccc2nc(-c3n[nH]cc3/C=C/c3cncc(C#N)c3)[nH]c2c1`, the half-maximal inhibitory concentration (IC50) in test [1] is over 100000 nM; in test [2], over 1000 nM; against Aurora kinase A it was 4200 nM; in test [3], 1700 nM.

As for `COC(=O)c1cncc(/C=C/c2c[nH]nc2-c2nc3ccc(OC)cc3[nH]2)c1`, the IC50 in test [1] was over 100000 nM; in test [2], 890 nM; with A-375, 3100 nM; in the test with HCT-116 it was 3100 nM; against Aurora kinase A it was over 100000 nM; in test [3], 1280 nM. In the test with HeLa, this compound yielded an IC50 of 4400 nM.

For `COc1ccc2nc(-c3n[nH]cc3/C=C/c3cccnc3)[nH]c2c1`, the IC50 in test [1] is over 10000 nM; in test [2], 33 nM; in the test with A-375, 2500 nM; in the test with HCT-116 it was 2200 nM; against Aurora kinase A it was 510 nM; in test [3], 970 nM. Moreover, half-maximal inhibition in the test with HeLa (IC50) required 1800 nM.

By IC50 is commonly meant the concentration that inhibits the measured activity by half. Low readings indicate greater potency, high ones weaker potency.
